Experiments:
L1210 = test: Inhibitory dose for L1210 cells in culture. Not tested at higher concentrations because of their limited solubility; assay type: functional; details: Mus musculus, read-out: ID50 (the source's name)
[1] = molecular target: Thymidylate synthase (Mus musculus) (UniProt P07607)
Sequence of Thymidylate synthase (Mus musculus) (P07607 whole entry, looked up): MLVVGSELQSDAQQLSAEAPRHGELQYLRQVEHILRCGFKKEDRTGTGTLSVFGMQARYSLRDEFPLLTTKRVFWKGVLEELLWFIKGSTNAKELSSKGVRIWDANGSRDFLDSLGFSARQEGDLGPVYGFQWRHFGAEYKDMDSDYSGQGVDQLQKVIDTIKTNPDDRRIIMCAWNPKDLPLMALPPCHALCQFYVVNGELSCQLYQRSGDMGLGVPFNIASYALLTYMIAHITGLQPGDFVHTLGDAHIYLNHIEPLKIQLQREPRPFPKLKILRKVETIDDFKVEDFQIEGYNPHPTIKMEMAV
Description: Inverse relative potency for the inhibition of L1210 thymidylate synthase

C#CCN(Cc1ccc2nc(N)nc(O)c2c1)c1ccc(C(=O)O)cc1
IC50 (L1210): > 200 µM
Potency [1]: 84

C#CCN(Cc1ccc2nc(N)nc(O)c2c1)c1ccc(C(=O)NC(CC(=O)O)C(=O)O)cc1 (stereo not drawn)
IC50 (L1210): > 137 µM
Potency [1]: 8.9

C#CCN(Cc1ccc2nc(N)nc(O)c2c1)c1ccc(C(=O)NC(C)C(=O)O)cc1 (stereo not drawn)
IC50 (L1210): > 10 µM
Potency [1]: 5.2

C#CCN(Cc1ccc2[nH]c(N)nc(=O)c2c1)c1ccc(C(=O)NC(CCC(=O)O)C(=O)O)cc1 (stereo not drawn)
IC50 (L1210): 5 µM

C#CCN(Cc1ccc2nc(N)nc(O)c2c1)c1ccc(C(=O)NCC(=O)O)cc1
IC50 (L1210): > 100 µM
Potency [1]: 20.7

C#CCN(Cc1ccc2nc(N)nc(O)c2c1)c1ccc(C(=O)NC(CCC(=O)OCC)C(=O)OCC)cc1 (stereo not drawn)
IC50 (L1210): 52 µM
Potency [1]: > 62

C#CCN(Cc1ccc2nc(N)nc(O)c2c1)c1ccc(CCCC(=O)O)cc1
IC50 (L1210): > 10 µM
Potency [1]: 333
